From patent publication US20190086410A1, “FUNCTION-BASED PROBES FOR ENVIRONMENTAL MICROBIOME ANALYSIS AND METHODS OF MAKING AND USING THE SAME” (Battelle Memorial Institute, priority 2017, published 2019)

Columns and labels:
[1] = test system: β-glucuronidases from Escherichia coli, Streptococcus agalactiae, and Clostridium perfringens; type: biochemical; settings: wild-type enzymes; fluorescence SDS-PAGE
β-glucuronidase (uidA) [2] = biological target: β-glucuronidase (uidA) (Escherichia coli, UniProt P05804); type: cell-based, E. coli
β-glucuronidase (uidA) [3] = type: cell-based, E. coli; settings: ΔuidA strain lacking β-glucuronidase
WT E. coli = experiment: Whole-cell probe labeling coupled to flow cytometry/FACS, E. coli only; type: cell-based; settings: 50 μM
[4] = test system: Lactobacillus plantarum, which lacks a β-glucuronidase; experiment: Whole-cell probe labeling coupled to flow cytometry/FACS, L. plantarum only; type: cell-based; settings: 50 μM
[5] = test system: mix of WT E. coli and L. plantarum; experiment: Whole-cell probe labeling coupled to flow cytometry/FACS, mix of E. coli and L. plantarum; type: cell-based, Lactobacillus plantarum
[6] = test system: glucuronidase activity in the gut microbiome; type: in vivo, mouse; settings: in 4 of 5 sets of littermates; vancomycin in water vs water
Procedure: Microbial cells from the mouse gut were suspended in PBS with a protease inhibitor (COMPLETE® EDTA-free Protease Inhibitor, ROCHE®) and lysed via bead beating (BULLET BLENDER®). β-glucuronidase assays were conducted as previously described with modifications. Briefly, 4-methylumbelliferyl-β-D-glucuronide (4-MUG; 1 mM) was added to 50 μL lysate (0.9 μg total protein) for a final concentration of 500 μM. At specific time points (0-240 minutes), 10 μL aliquots of each reaction were added to 90 μL of 0.1 M […] (pH=10) and stored in the dark. Fluorescence was measured using a plate reader (MOLECULAR BIOSCIENCES®), and the amount of hydrolyzed substrate was calculated relative to a standard curve. The rate (mM/s) was determined via linear regression (GRAPHPAD® PRISM®), and activity was calculated as rate per μg protein. Values from three independent replicates were averaged, and activity was compared across biological replicates (n=5) using a ratio paired t-test.
Pairs of littermates were exposed to water with or without vancomycin, an antibiotic known to target Firmicutes in the gut microbiota (FIG. 12). As Firmicutes made up most the probe-positive taxa in the non-treated mice (FIG. 13), vancomycin treatment may shift the GlcA-ABP+ population composition. […] Accordingly, the intensity of GlcA-ABP+ labeling decreased as well (FIG. 14B).

gut microbiota = type: in vivo, mouse
[7] = vancomycin-treated vs untreated littermates

β-glucuronidase (uidA) (Escherichia coli, UniProt P05804), sequence (P05804 whole entry): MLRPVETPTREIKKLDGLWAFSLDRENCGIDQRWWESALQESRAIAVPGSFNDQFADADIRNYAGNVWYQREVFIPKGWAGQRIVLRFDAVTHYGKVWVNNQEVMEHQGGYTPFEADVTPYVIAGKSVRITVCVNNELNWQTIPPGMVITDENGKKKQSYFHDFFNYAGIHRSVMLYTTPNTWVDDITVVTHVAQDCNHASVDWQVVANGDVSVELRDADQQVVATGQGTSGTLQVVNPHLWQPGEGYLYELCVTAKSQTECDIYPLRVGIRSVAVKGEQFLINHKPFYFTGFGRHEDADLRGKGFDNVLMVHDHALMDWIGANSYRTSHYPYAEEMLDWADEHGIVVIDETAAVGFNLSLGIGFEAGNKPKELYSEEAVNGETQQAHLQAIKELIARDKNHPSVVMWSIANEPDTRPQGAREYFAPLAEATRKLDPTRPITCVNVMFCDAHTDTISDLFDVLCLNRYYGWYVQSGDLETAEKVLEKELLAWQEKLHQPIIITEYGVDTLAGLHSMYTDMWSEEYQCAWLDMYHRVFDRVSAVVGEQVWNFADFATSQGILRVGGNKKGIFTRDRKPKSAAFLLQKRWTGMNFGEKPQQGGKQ

C#CCCCC(=O)Nc1ccc(OC2OC(C(=O)O)C(O)C(O)C2O)c(C(F)F)c1 (stereo not drawn) [GlcA-ABP, 6-(2-(difluoromethyl)-4-(hex-5-ynamido)phenoxy)-3,4,5-trihydroxytetrahydro-2H-pyran-2-carboxylic acid]
GlcA-ABP labeling intensity of purified β-glucuronidases [1]: corresponded with the catalytic efficiency of these enzymes
labeling in ΔuidA complemented with uidA (β-glucuronidase (uidA) [2]; SDS-PAGE and flow cytometry): restoration of labeling
labeling of β-glucuronidase in wild type (WT) E. coli (β-glucuronidase (uidA) [2]; WT E. coli, SDS-PAGE): Dose-dependent labeling
labeling in ΔuidA E. coli (β-glucuronidase (uidA) [3]): no labeling
cell labeling, flow cytometry (WT E. coli): labeling was observed
cell labeling, flow cytometry [4]: none
cell labeling, flow cytometry ([5]; mixture of E. coli and L. plantarum, 50 μM): an intermediate amount

CN[C@H](CC(C)C)C(=O)N[C@H]1C(=O)N[C@@H](CC(N)=O)C(=O)N[C@H]2C(=O)N[C@H]3C(=O)N[C@H](C(=O)N[C@H](C(=O)O)c4cc(O)cc(O)c4-c4cc3ccc4O)[C@H](O)c3ccc(c(Cl)c3)Oc3cc2cc(c3O[C@@H]2O[C@H](CO)[C@@H](O)[C@H](O)[C@H]2O[C@H]2C[C@](C)(N)[C@H](O)[C@H](C)O2)Oc2ccc(cc2Cl)[C@H]1O [Vancomycin, vancomycin]
glucuronidase activity in gut microbiome after treatment [6]: reduced, but did not eliminate
relative abundance of Firmicutes (gut microbiota; [7]): dramatically decreased
relative abundance of Proteobacteria, Verrucomicrobia, and Bacteroidetes (gut microbiota; [7]): corresponding increase
intensity of GlcA-ABP+ labeling after treatment (gut microbiota; vancomycin-treated vs untreated mice): decreased

C#CCCCCNC(=O)CI [IAA, iodoacetamide alkyne, reference compound]
cell labeling by positive control probe, flow cytometry ([5]; E. coli only, L. plantarum only, or mix, 10 μM): all cells were labeled
